What all share (format): binding
The target of experiment [1] is T1, Tom1 VHS domain (Homo sapiens, UniProt O60784).
T1 construct: GST fusion from E. coli Rosetta, GST cut off with thrombin; monomer
Description: isothermal titration calorimetry. The text has this: isothermal titration calorimetry on Tom1 VHS domain
(ITC needs no label: the signal is the heat of the interaction.)

Experiment [2] deals with T1, Tom1 VHS domain. Description: thermal denaturation by far-UV CD at […] nm. The conditions noted are these: pre-incubated with excess lipid, nonreducing, 5 mM sodium citrate pH 7.3, 50 mM KF; free protein Tm 47.5 ± 0.1 °C.
Experiment [3] deals with T1, Tom1 VHS domain. In words: thermal denaturation by far-UV CD at […] nm. The conditions noted are these: molar excess of lipid, nonreducing, 5 mM sodium citrate pH 7.3, 50 mM KF; free protein Tm 47.5 ± 0.1 °C.

Like-named read-outs stand apart in the source and are kept apart here.

Broadly, the Kd is the concentration at which binding is half-saturated.

T1 sequence (O60784 1-140 limits assumed): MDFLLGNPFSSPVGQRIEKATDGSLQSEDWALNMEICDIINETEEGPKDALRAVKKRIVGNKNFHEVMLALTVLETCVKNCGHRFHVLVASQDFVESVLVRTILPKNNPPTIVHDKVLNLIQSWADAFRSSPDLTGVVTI

Molecule `O=P(O)(O)O[C@@H]1[C@@H](O)[C@H](OP(=O)(O)O)[C@H](O)[C@H](O)[C@H]1O` [Ins(1,5)P2] displayed an equilibrium dissociation constant (Kd) in experiment [1] of 214 ± 67.2 µM.

As to PtdIns, the mid-transition temperature in experiment [2] is 34 °C.

On to `CCCCCCCC(=O)OC[C@H](COP(=O)([O-])OCC[N+](C)(C)C)OC(=O)CCCCCCC` [PtdCho], for which, in experiment [3], the “Tm (°C) / N to I/D” value is 43.0 ± 0.1 °C.

Consider `CCCCCCCC(=O)OC[C@H](COP(=O)(O)O[C@H]1[C@H](O)[C@@H](OP(=O)(O)O)[C@H](O)[C@@H](O)[C@H]1O)OC(=O)CCCCCCC` [PtdIns5P], for which the “Tm (°C) / N to I/D” value in experiment [3] came out at 37.6 ± 0.3 °C. This molecule yielded an equilibrium dissociation constant (Kd) in experiment [1] (high-affinity site of two-site fit, nonreducing, 20 mM HEPES pH 7.4, 150 mM KCl, 25 °C) of 3.1 ± 0.6 µM.
